The test system of one data set is dog hepatocytes. Description: incubation with dog hepatocytes. It counts as in vitro ADME. The protocol:
(§1) Exposure to NRL-2017 was similar or greater (up to 5-fold) than that to NRL-1049 in rats when dosed once a day (QD). In monkeys, exposure to NRL-2017 was also greater (up to 33-fold) than that to NRL-1049. When rats were dosed twice a day (BID) for 14 days, there was a decrease in formation of NRL-2017 with exposure to NRL-2017 lower than that of NRL-1049 (ratio as low as 0.06). […] NRL-1049 bound to human serum albumin and human alpha1-acid glycoprotein. […] There was also inhibition of P-glycoprotein (P-gp) (only CACO-2 cells), organic anion transporting polypeptides (OATP) OATP1B1, OATP1B3 and OAT3 (IC50, >100 μM), but no effect on P-gp (MDCK2 cells), breast cancer resistance protein (BCRP), bile salt export pump (BSEP), or MATE2-K. NRL-1049 is a substrate for P-gp, not BCRP. […] This conclusion will be revisited when human pharmacokinetic (PK) data becomes available.

In the next data set the target is MATE2-K (Homo sapiens, UniProt Q86VL8). Format: in vitro ADME. Here is the method: as §1
Chain of MATE2-K (Q86VL8 1-566 isoform Q86VL8-3): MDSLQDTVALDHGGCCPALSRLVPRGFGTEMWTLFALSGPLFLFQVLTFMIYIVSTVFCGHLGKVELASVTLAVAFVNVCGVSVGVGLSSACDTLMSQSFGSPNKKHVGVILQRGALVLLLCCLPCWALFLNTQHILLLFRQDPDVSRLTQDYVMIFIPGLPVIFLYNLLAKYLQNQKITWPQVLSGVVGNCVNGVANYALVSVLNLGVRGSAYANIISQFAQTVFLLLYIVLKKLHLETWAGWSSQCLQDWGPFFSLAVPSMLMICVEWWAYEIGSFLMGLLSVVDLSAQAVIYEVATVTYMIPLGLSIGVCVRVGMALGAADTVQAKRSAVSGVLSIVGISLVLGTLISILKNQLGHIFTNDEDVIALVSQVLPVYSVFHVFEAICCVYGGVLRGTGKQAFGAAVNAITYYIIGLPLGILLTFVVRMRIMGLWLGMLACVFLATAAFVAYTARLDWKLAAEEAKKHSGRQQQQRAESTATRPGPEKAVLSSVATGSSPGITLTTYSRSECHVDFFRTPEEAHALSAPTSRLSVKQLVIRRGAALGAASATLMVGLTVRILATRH
The target of data set [1] is T1, P-glycoprotein (P-gp) (only CACO-2 cells) (Homo sapiens, UniProt P08183).
T1 construct: endogenous in cells; host or cells: CACO-2 cells
T1 sequence (P08183 whole entry): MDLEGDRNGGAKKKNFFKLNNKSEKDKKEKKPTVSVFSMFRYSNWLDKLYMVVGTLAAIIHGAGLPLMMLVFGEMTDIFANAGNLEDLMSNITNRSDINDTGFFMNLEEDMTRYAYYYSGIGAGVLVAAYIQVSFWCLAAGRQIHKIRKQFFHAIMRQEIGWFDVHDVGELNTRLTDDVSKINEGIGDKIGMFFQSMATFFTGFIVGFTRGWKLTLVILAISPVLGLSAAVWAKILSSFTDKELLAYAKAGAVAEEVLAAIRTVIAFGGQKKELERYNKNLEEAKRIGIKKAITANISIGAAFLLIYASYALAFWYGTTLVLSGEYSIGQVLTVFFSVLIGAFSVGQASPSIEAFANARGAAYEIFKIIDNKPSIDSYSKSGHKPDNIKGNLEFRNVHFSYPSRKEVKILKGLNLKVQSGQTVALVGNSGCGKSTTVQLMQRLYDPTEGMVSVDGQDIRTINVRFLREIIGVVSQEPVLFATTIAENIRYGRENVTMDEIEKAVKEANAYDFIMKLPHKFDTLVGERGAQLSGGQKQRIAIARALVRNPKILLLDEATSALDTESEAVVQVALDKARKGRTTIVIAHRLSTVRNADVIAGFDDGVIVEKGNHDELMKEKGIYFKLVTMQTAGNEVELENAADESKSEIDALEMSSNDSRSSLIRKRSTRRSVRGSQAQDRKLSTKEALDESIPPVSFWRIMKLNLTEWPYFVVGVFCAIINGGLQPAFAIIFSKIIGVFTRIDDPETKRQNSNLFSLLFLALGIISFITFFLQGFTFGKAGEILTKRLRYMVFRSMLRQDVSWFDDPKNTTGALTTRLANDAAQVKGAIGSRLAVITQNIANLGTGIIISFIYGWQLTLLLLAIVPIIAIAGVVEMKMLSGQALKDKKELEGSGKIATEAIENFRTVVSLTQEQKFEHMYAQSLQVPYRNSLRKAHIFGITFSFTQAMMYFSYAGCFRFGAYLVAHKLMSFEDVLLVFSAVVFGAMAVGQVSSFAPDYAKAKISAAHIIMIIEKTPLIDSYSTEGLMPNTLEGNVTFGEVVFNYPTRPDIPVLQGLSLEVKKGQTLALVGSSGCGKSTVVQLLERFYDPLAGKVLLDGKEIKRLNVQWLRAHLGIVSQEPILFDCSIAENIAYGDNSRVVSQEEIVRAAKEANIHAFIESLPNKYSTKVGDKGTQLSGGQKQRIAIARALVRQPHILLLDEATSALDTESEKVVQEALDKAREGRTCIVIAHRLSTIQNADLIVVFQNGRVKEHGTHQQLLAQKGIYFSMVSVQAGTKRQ
Description: transporter inhibition. Format: in vitro ADME. The protocol:
as §1

Data set [2] deals with bile salt export pump (BSEP) (Homo sapiens, UniProt O95342). Briefly: transporter inhibition. Format: in vitro ADME. The protocol:
as §1

The target of another data set is MATE1 (Homo sapiens, UniProt Q96FL8). Briefly: transporter inhibition. Format: in vitro ADME. The conditions noted are these: one range printed for OAT1, OCT1, OCT2 and MATE1 together. Here is the method: as §1
Chain of MATE1 (Q96FL8 whole entry): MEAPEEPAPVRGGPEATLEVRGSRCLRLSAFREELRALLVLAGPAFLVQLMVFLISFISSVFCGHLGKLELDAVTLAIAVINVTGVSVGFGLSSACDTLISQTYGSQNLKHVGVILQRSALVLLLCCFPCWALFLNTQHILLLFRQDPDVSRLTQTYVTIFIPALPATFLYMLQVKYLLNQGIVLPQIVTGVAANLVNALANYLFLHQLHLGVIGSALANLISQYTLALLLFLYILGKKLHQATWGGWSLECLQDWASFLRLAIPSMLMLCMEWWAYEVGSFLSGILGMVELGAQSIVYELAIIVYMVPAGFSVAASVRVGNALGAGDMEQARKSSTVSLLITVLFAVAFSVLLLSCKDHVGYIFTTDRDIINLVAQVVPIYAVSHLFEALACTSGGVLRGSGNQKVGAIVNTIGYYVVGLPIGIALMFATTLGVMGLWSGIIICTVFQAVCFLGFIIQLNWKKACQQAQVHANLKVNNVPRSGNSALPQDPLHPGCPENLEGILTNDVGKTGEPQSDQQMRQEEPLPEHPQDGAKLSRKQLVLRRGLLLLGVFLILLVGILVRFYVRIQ
For a further data set, the target named is CYP2D6 (Homo sapiens, UniProt P10635). Description: CYP inhibition. It counts as in vitro ADME. The conditions noted are these: read-out: half-maximal inhibitory concentration (IC50). The protocol: as §1
Chain of CYP2D6 (P10635 whole entry): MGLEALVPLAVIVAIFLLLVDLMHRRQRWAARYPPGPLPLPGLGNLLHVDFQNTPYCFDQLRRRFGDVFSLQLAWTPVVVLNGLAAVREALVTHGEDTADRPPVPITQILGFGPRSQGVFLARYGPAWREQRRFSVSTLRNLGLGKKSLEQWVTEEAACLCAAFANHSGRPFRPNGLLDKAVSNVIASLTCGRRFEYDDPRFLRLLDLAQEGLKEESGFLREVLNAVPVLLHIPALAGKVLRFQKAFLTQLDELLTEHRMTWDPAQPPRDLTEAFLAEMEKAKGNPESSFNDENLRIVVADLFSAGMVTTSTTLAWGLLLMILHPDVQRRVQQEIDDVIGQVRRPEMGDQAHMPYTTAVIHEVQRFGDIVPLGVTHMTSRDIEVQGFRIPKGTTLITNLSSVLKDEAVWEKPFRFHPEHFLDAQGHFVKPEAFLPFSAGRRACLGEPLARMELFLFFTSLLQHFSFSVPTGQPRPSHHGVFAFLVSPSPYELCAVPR
A further data set concerns CYP3A4/5. Briefly: CYP inhibition. It counts as in vitro ADME. The conditions noted are these: human. Here is the method: as §1
The target of a further data set is CYP2C8 (Homo sapiens, UniProt P10632). Description: CYP inhibition. It counts as in vitro ADME. The conditions noted are these: read-out: half-maximal inhibitory concentration (IC50). The protocol:
as §1

Data set [3] in a line: nonclinical pharmacokinetics after a single oral dose. Format: in vivo, mice, rats, and monkeys. Here is the method: as §1

Like-named read-outs stand apart in the source and are kept apart here.

What is called half-life is the time in which the quantity being followed falls by half.

Chain of CYP2C8 (P10632 whole entry): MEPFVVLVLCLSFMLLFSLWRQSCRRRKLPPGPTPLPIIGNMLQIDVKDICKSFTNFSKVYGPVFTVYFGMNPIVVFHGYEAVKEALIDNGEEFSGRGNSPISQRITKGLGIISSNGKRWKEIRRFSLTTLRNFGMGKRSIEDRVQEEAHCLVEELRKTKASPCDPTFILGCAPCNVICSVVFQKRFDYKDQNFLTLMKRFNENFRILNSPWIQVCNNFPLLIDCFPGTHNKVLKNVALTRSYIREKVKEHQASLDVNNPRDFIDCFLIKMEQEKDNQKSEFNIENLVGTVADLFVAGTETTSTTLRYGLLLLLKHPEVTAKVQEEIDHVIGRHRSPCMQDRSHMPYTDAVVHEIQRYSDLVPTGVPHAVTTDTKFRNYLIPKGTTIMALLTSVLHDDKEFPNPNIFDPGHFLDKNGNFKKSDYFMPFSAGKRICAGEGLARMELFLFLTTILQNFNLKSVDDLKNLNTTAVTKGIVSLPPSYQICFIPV
Chain of bile salt export pump (BSEP) (O95342 whole entry): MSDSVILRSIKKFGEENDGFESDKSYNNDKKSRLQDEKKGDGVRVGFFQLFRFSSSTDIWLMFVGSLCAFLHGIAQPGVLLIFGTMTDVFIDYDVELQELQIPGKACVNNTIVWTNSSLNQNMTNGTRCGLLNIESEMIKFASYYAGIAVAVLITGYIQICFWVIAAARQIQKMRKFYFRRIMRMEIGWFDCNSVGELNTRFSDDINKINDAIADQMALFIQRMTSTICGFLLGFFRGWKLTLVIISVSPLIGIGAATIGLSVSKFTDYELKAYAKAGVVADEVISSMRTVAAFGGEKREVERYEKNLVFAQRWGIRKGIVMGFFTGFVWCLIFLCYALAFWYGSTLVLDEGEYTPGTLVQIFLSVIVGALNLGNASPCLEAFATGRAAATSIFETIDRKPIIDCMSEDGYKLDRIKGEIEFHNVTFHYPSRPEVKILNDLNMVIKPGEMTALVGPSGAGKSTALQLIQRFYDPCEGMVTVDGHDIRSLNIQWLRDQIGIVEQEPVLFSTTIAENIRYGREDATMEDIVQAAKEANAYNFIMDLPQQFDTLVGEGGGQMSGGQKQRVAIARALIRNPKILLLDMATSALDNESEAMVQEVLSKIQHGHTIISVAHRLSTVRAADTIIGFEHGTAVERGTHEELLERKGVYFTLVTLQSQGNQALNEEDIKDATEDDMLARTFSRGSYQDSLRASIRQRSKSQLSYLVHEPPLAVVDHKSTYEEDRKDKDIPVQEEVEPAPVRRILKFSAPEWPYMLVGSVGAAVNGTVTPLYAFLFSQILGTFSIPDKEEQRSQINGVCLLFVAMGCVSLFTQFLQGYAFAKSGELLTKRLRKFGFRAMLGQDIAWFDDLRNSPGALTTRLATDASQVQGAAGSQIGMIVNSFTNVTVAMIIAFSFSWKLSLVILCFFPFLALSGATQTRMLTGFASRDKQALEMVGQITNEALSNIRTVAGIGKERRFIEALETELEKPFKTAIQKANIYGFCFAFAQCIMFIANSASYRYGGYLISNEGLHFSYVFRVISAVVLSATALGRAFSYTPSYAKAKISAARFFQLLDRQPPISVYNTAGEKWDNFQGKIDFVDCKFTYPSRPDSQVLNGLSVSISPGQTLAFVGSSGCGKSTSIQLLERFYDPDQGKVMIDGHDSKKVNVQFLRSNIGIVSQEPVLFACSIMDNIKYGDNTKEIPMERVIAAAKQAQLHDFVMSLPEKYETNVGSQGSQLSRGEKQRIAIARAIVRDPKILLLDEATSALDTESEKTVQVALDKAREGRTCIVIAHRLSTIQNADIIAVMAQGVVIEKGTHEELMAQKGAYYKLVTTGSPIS

With `C[C@@H](N)C1CCN(S(=O)(=O)c2cccc3cnccc23)CC1` [NRL-1049], in the data set on dog hepatocytes, the metabolism by hepatocytes result was “not metabolized”. Also, the effect on transporter entry (at MATE2-K; in [2]) was “no effect” each time. Also, the IC50 in [1] is more than 100 µM; against MATE1, 8.54 to 66.2 µM; on CYP2D6 it was 0.18 µM; in the data set on CYP3A4/5 (first of the two values printed 23/110, read-out: half-maximal inhibitory concentration (IC50)), 23 µM; in the data set on CYP3A4/5 (second of the two values printed 23/110, read-out: half-maximal inhibitory concentration (IC50)), 110 µM; on CYP2C8 it was 160 µM. In data set [3] (in vivo), the exposure versus dose result is given as “greater than dose-proportional”. Further, the half-life in data set [3] (mouse, rat, monkey, plasma, single oral dose of NRL-1049, range over mice, rats, and monkeys, read-out: elimination phase half-life (t½)) is 0.57 to 6.8 h. Also, the Tmax in data set [3] (mouse, rat, monkey, plasma, single oral dose of NRL-1049, range over mice, rats, and monkeys, read-out: time to maximum plasma concentration (Tmax)) is 0.25 to 2 h.
